From patent US20070244060A1, “Therapeutic Agent for Autoimmune Disease” (priority 2003, published 2007)

Key:
Type in all cases: cell-based, human
[1] = test system: rheumatoid synoviocytes; assay: WST-8 assay of proliferation activity of rheumatoid synoviocytes after siRNA treatment; settings: 96 hours after siRNA treatment; anti-GFP siRNA negative control = 100; FIG. 3A
Procedure: The experiments were carried out as follows. Rheumatoid synoviocytes were seeded at 160 each into a 96-well, flat-bottom plate from the Falcon Co. After 24 hours, treatment was carried with anti-Synoviolin siRNA or anti-GFP siRNA, and the proliferation activity was investigated after an additional 96 hours. The GFP was used in this case as a negative control. The degree of cell proliferation was measured using a WST-8 assay from Dojindo Laboratories.

[2] = test system: synoviocytes; assay: Apoptosis induction in synoviocytes, nuclear condensation by Hoechst 33258 DNA staining; settings: FIG. 3B
Procedure: Then, synoviocytes were seeded at 2500 each to an eight-well Lab-Tek Chamber from the Nunc Company and were incubated for 24 hours in an incubator under 5% CO2 at 37° C. 67 nM siRNA was thereafter introduced into the synoviocytes using TransIT-TKO transfection reagent from the Miru Bio Corporation. After additional incubation for 48 hours in an incubator under 5% CO2 at 37° C., 50 μg/mL tunicamycin was added, followed by incubation for 48 hours under the same conditions. The cells were then fixed and nuclear condensation was confirmed by DNA staining with Hoechst 33258.

[3] = test system: rheumatoid synoviocytes (RA); assay: ER stress-inducible apoptosis, ssDNA Apoptosis ELISA, rheumatoid synoviocytes; settings: RA synoviocytes (5 cases), 24 hours, FIG. 5
Procedure: (§1) The experiments were carried out as follows. […] Endoplasmic reticulum stress-inducible apoptosis was induced using tunicamycin at concentrations of 10, 30, and 100 μg/mL. Apoptosis was quantitated using the ssDNA Apoptosis ELISA kit from Chemicon International, Inc.

[4] = test system: osteoarthritis synoviocytes (OA); assay: ER stress-inducible apoptosis, ssDNA Apoptosis ELISA, osteoarthritis synoviocytes; settings: OA synoviocytes (5 cases), 24 hours, FIG. 5
Procedure: as §1

Row | Substance | proliferation activity of rheumatoid synoviocytes (GFP=100) [1] | apoptosis induction in synoviocytes, co-use of siRNA with tunicamycin ([2]; 67 nM siRNA 48 hours, then 50 μg/mL tunicamycin 48 hours) | apoptosis induction in synoviocytes ([2]; 50 μg/mL tunicamycin, 48 hours) | apoptosis (ssDNA Apoptosis ELISA) ([3]; tunicamycin 10 μg/mL) | apoptosis (ssDNA Apoptosis ELISA) ([3]; tunicamycin 30 μg/mL) | apoptosis (ssDNA Apoptosis ELISA) ([3]; tunicamycin 100 μg/mL) | apoptosis (ssDNA Apoptosis ELISA) ([4]; tunicamycin 10 μg/mL) | apoptosis (ssDNA Apoptosis ELISA) ([4]; tunicamycin 30 μg/mL) | apoptosis (ssDNA Apoptosis ELISA) ([4]; tunicamycin 100 μg/mL)
1 | anti-Synoviolin siRNA: small interfering RNA against the Synoviolin gene; sense CGUUCCUGGUACGCCGUCAUU (SEQ ID NO: 1), antisense UGACGGCGUACCAGGAACGUU (SEQ ID NO: 2) (listed as RNA, chemistry not given here) | about 60% | increased |  |  |  |  |  |  | 
2 | tunicamycin |  |  | caused apoptosis induction | 0.73±0.30 | 0.84±0.35 | 0.81±0.28 | 2.18±1.19 | 2.76±1.84 | 3.65±2.53
